Data published in patent publication US6242199A, “Assays for growth hormone secretagogue receptors” (Merck & Co., Inc., priority 1998, dated 2001).
Where no end group is shown, it is not given here.

target: T1, growth hormone secretagogue receptor (GHSR), porcine anterior pituitary membranes (Sus scrofa, UniProt Q95254); assay: [35S]-Compound A radioreceptor binding, porcine anterior pituitary membranes; settings: not given
T1 construct: Frozen anterior pituitary glands from male swine (50-80 Kg); from tissue; host or cells: anterior pituitary glands of male swine (50-80 kg), crude membranes
T1 sequence (Q95254 whole entry): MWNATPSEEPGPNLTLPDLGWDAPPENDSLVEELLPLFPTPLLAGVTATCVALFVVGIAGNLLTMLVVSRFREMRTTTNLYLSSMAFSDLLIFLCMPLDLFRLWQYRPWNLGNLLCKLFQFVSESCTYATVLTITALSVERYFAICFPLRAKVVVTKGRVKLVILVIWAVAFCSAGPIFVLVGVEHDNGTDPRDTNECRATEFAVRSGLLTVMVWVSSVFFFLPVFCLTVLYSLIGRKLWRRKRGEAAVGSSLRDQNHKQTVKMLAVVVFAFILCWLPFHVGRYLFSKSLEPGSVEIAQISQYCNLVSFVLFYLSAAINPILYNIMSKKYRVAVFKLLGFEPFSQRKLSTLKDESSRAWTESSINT
Method: Frozen anterior pituitary glands from male swine (50-80 Kg) or from the Wistar male rats (150-200 g) were homogenized in a tissue homogenizer in ice-cold buffer (50 mM Tris-HCl buffer, pH 7.4, 5 mM MgCl2, 2.5 mM EDTA, 0.1% bovine serum albumin and 30 μg/ml bacitracin). The homogenates were centrifuged for 5 min at 1,400×g and the resulting supernatants were then centrifuged at 34,000×g for 20 min. The pellets were resuspended in same buffer to a 1,500 μg protein/ml and stored at -80° C. Protein was determined by a Bio-Rad method (Bio-Rad Laboratories, Richmond, Calif.).
Aliquots were incubated at 20° C. for 60 min and bound radioligand was separated from free by filtration through GF/C filters pretreated with 0.5% of polyethylenimine in a Brandel cell harvester. […] Assays were carried out in triplicate and experiments repeated at least three times.

Row | Molecule | IC50
1 | Nc1nc2c(ncn2[C@@H]2O[C@H](COP(=O)(O)OP(=O)(O)OP(O)(O)=S)[C@@H](O)[C@H]2O)c(=O)[nH]1 [GTP-γ-S] | 30 nM

same assay, conditions: 1 μM

Row | Molecule | competition with [35S]-Compound A at 1 μM (in words)
2 | CC(C)NC[C@H](O)COc1cccc2ccccc12 (racemic) [propanolol] | did not compete
3 | COc1cccc(OC)c1OCCNCC1CSc2ccccc2O1 (stereo not drawn) [benoxathian] | did not compete
4 | CC(C)C[C@H]1C(=O)N2CCC[C@H]2[C@]2(O)O[C@](NC(=O)[C@@H]3C=C4c5cccc6[nH]c(Br)c(c56)C[C@H]4N(C)C3)(C(C)C)C(=O)N12 [bromocriptine] | did not compete
5 | Clc1cccc(Cl)c1N=C1NCCN1 [clonidine] | did not compete
6 | CC(C)NCC(O)c1ccc(O)c(O)c1 (stereo not drawn) [isoproterenol] | did not compete
7 | COc1ccc(OC)c(C(O)C(C)N)c1 (stereo not drawn) [methoxamine] | did not compete
8 | CC(COc1ccccc1)N(CCCl)Cc1ccccc1 (stereo not drawn) [phenoxybenzamine] | did not compete
9 | NC(=O)[C@@H]1CCCN1C(=O)[C@H](Cc1cnc[nH]1)NC(=O)[C@@H]1CCC(=O)N1 [thyrotropin releasing hormone] | did not compete
10 | GHRH: hypothalamic hormone, growth hormone releasing factor | did not compete
11 | PHM-27 (HADGVFTSDFSKLLGQLSAKKYLESLM; ends and bridges not checked; UniProt P01282 81-107, looked up) | did not compete
12 | galanin | did not compete
13 | gastrin releasing peptide (VPLPAGGGTVLTKMYPRGNHWAVGHLM; ends and bridges not checked; UniProt P07492 24-50, looked up) | did not compete
14 | gonadotropin releasing hormone | did not compete
15 | melanocyte stimulating hormone | did not compete
16 | met-enkephalin | did not compete
17 | pituitary adenylate cyclase activating polypeptide-38 | did not compete
18 | somatostatin: hypothalamic hormone | did not compete
19 | substance P | did not compete

same assay, conditions: % of affinity of Compound A

Row | Molecule | affinity relative to that of Compound A
20 | CC(C)(N)CC(=O)N[C@@H]1CCc2ccccc2N(Cc2ccc(-c3ccccc3-c3nn[nH]n3)cc2)C1=O [Compound B] | 0.4%
21 | GHRP-6 | 3.8%

same assay, conditions: GTP analogs / nucleotides; FIG. 26; read-out: inhibition of [35S]-Compound A binding, IC50

Row | Molecule | IC50
22 | Nc1nc2c(ncn2[C@@H]2O[C@H](COP(=O)(O)OP(=O)(O)NP(=O)(O)O)[C@@H](O)[C@H]2O)c(=O)[nH]1 [GMP-PNP] | 110 nM

same assay, conditions: double reciprocal plot of saturation isotherm; FIG. 25

Row | Molecule | nature of competition with [35S]-Compound A (in words)
23 | CC(C)(N)CC(=O)N[C@@H]1CCc2ccccc2N(Cc2ccc(-c3ccccc3-c3nn[nH]n3)cc2)C1=O [Compound B] | competitor of [^35 S]-Compound A binding
24 | GHRP-6 | interacts competitively with Compound A in the same binding site

same assay, conditions: nucleotides; FIG. 26

Row | Molecule | effect on [35S]-Compound A binding (in words)
25 | Nc1ncnc2c1ncn2[C@@H]1O[C@H](COP(=O)(O)OP(=O)(O)OP(O)(O)=S)[C@@H](O)[C@H]1O [ATP-γ-S] | ineffective

same assay, conditions: unlabeled competitor; FIG. 24

Row | Molecule | displacement of / competition with [35S]-Compound A binding (in words)
26 | CC(C)(N)CC(=O)N[C@H]1CCc2ccccc2N(Cc2ccc(-c3ccccc3-c3nn[nH]n3)cc2)C1=O [Compound C] | competed poorly

target: growth hormone secretagogue receptor (GHSR) of swine, native receptor of the anterior pituitary (swine) (UniProt Q95254); assay: competition with [35S]-Compound A on porcine anterior pituitary membranes, filtration; settings: not given

Row | Molecule | affinity as percent of that of Compound A
27 | GHRP-6 (peptide) | 3.8%
